Data: patent US10596137B2, “Medium chain fatty acids and their triglycerides for treating anxiety” (NESTEC S.A., priority 2015, dated 2020)
Entries after “also recorded” stand apart in the source; their conditions may differ.

Assay: Temporal dynamics of plasma and brain ketones after octanoic or decanoic acid ingestion
Assay type: in vivo, rat
Settings: after ingestion (oral gavage); for plasma and brain β-HB (ketone) levels: kinetics
Description: Blood was drawn from the tail vein 7 days after initiation of treatment and trunk blood was collected during sacrifice. Blood was centrifuged and plasma samples were analysed for beta-hydroxybutyrate using a colorimetric kit (Cayman, US). For measurement of brain ketones, sample preparation involved liquid/liquid extraction of 50 μl brain tissue supernatant (pH 2), and extract derivatization with MSTFA (silylation). Analysis of BHB was performed via GC/MS, int. Standard 13C2-3-OH-But, m/z 233 (3-OH-But), m/z 118 (13C2-3-OH-But), with a calibration of 2-24 μg/ml (water); LOQ: 2 μg/ml, LOD: 0.7 μg/ml.
Control rats received oral gavage of sunflower oil, as described above. MCT8 and MCT10 received oral gavage of octanoic acid or decanoic acid, respectively. Rats were sacrificed and trunk blood, portal vein blood and brain, pancreas and liver were collected as indicated.

Structure (SMILES)	plasma and brain β-HB (ketone) levels	plasma ketone levels (octanoic compared to decanoic acid)
CCCCCCCC(=O)O [octanoic acid]	more rapid increase; also recorded: rapid increase	increased more rapidly
CCCCCCCCCC(=O)O [decanoic acid]	longer-lasting increase; also recorded: prolonged increase	–
